In patent US12257247B2 (Monte Rosa Therapeutics AG, priority 2023, dated 2025) one finds Dmax and DC50 data, which are given here for 13 molecules.

For the assay, the target named is T1, VAV1 (Homo sapiens, UniProt P15498+Q96SW2).
T1 construct: A heterozygous VAV1 C-terminal HiBiT knock-in pool was generated at Monte Rosa Therapeutics from a clonal Jurkat cell; endogenous in cells; host or cells: Jurkat clone stably expressing LgBiT, homozygous GSPT1-G575N; heterozygous VAV1-HiBiT knock-in pool
Description: VAV1 degradation activity, VAV1-HiBiT knock-in Jurkat luminescence assay (Example A, Table 1). To be noted: VAV1-HiBiT knock-in Jurkat cells, luminescence read at 6 and 24 hours; for Dmax: Jurkat. The format is cell-based. The method, boiled down:
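Luminescence was measured at 6 and 24 h after adding compound (10 μM stock) to VAV1-HiBiT knock-in Jurkat cells, which had been pre-incubated ~16 h at 37° C. in RPMI/10% FBS containing Endurazine. EC50 values came from control-normalised responses fitted to a 3-parameter logistic model with hillslope fixed at 1.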
For orientation: With HiBiT, luminescence reflects the tagged protein that the partner subunit can reach.

The mark [1] stands for this setting: read-out: VAV1 DC50 (nM), class.

Read-outs that look alike come from different tables or passages of the source. Some results are limits rather than exact numbers.

For `Cn1ccc(COc2ccc(-c3cc(C#N)cc(C4CCC(=O)NC4=O)c3Cl)cc2)n1` (stereo not shown) [Compound 157], the greatest degradation seen (Dmax) is 20% (read-out: VAV1 Dmax %) and below 60% (read-out: VAV1 Dmax %, class). Also, the half-maximal degradation concentration (DC50) was at least 10000 nM (read-out: VAV1 DC50) and above 1000 nM under setting [1].
On the same counts, the results for `O=C1CCC(c2cccc(-c3ccc(N4C(=O)CCCC4C(F)F)cc3)c2Cl)C(=O)N1` (stereo not shown) [Compound 463, 3-(2-chloro-4′-(2-(difluoromethyl)-6-oxopiperidin-1-yl)-[1,1′-biphenyl]-3-yl)piperidine-2,6-dione] are 95.7%, above 90%, 7.16 nM and at most 100 nM.
On the same counts, the results for `CC(=O)Nc1ccc(-c2cccc(C3CCC(=O)NC3=O)c2Cl)cc1` (stereo not shown) [Compound 128] are 81.1%, 60 to 90%, 67.4 nM and at most 100 nM.
On the same counts, the results for `O=C1CCC(c2cccc(-c3ccc(CN4CCn5ccnc5C4=O)cc3)c2Cl)C(=O)N1` (stereo not shown) [Compound 274] are 69.5%, 60 to 90%, 269 nM and 100 to 1000 nM.
Turning to `N#Cc1cc(-c2cccc(C3CCC(=O)NC3=O)c2Cl)ccc1O` (stereo not shown) [Compound 112], the Dmax by setting is: (read-out: VAV1 Dmax %) 78.2%; (read-out: VAV1 Dmax %, class) 60 to 90%. Further, the half-maximal degradation concentration (DC50) is 119 nM (read-out: VAV1 DC50) and 100 to 1000 nM under setting [1].
`COCc1ccn(C)c(=O)c1-c1ccc(-c2cccc(C3CCC(=O)NC3=O)c2Cl)cc1` (stereo not shown) [Compound 411, 3-(2-chloro-4′-(4-(methoxymethyl)-1-methyl-2-oxo-1,2-dihydropyridin-3-yl)-[1,1′-biphenyl]-3-yl)piperidine-2,6-dione]: the Dmax was 98.2% (read-out: VAV1 Dmax %) and above 90% (read-out: VAV1 Dmax %, class). Also, the half-maximal degradation concentration (DC50) reads like this: (read-out: VAV1 DC50) 1.99 nM; under setting [1], at most 100 nM.
On the same counts, the results for `Cn1ncc2c1CCN(c1ccc(-c3cccc(C4CCC(=O)NC4=O)c3Cl)cc1)C2=O` (stereo not shown) [Compound 313] are 95.3%, above 90%, 7.02 nM and at most 100 nM.
Regarding `Nc1nccn1Cc1ccc(-c2cccc(C3CCC(=O)NC3=O)c2Cl)cc1` (stereo not shown) [Compound 102], the greatest degradation seen (Dmax) reads like this: (read-out: VAV1 Dmax %) 84.1%; (read-out: VAV1 Dmax %, class) 60 to 90%. The DC50 is, setting by setting: (read-out: VAV1 DC50) 240 nM; under setting [1], 100 to 1000 nM.
On the same counts, the results for `O=C1CCC(c2cccc(-c3ccc(N4C(=O)CC45CCOCC5)cc3)c2Cl)C(=O)N1` (stereo not shown) [Compound 418, 3-(2-chloro-4′-(2-oxo-7-oxa-1-azaspiro-[3.5]nonan-1-yl)-[1,1′-biphenyl]-3-yl)piperidine-2,6-dione] are 45.2%, below 60%, at least 10000 nM and above 1000 nM.
Consider `COc1cc(-c2cccc(C3CCC(=O)NC3=O)c2Cl)ccc1C(F)F` (stereo not shown) [Compound 125], for which the Dmax (read-out: VAV1 Dmax %) amounted to 75.9% and the Dmax (read-out: VAV1 Dmax %, class) was in the range of 60 to 90%. In addition, the DC50 reads like this: (read-out: VAV1 DC50) 1530 nM; under setting [1], above 1000 nM.
On the same counts, the results for `O=C1CC[C@@H](c2cccc(-c3ccc(-n4ccccc4=O)cc3)c2Cl)C(=O)N1` [Compound 211, (S)-3-(2-chloro-4′-(2-oxopyridin-1(2H)-yl)-[1,1′-biphenyl]-3-yl)piperidine-2,6-dione] are 97.9%, above 90%, 3.07 nM and at most 100 nM.
Consider `O=C1CCC(c2cccc(-c3ccc(Nc4ccccn4)cc3)c2Cl)C(=O)N1` (stereo not shown) [Compound 215, 3-(2-chloro-4′-(pyridin-2-ylamino)-[1,1′-biphenyl]-3-yl)piperidine-2,6-dione], for which the Dmax runs as follows: (read-out: VAV1 Dmax %) 96.8%; (read-out: VAV1 Dmax %, class) above 90%. Also, the half-maximal degradation concentration (DC50) (read-out: VAV1 DC50) is 14.1 nM and the 50% degradation concentration (DC50) under setting [1] was at most 100 nM.
The like results for `O=C1CCC(c2cccc(-c3ccc4c(cnn4Cc4ncccn4)c3)c2Cl)C(=O)N1` (stereo not shown) [Compound 396, 3-(2-chloro-3-(1-(pyrimidin-2-ylmethyl)-1H-indazol-5-yl)phenyl)piperidine-2,6-dione] were, in that order, 96.9%, above 90%, 4.98 nM and at most 100 nM.

One may read the Dmax as the largest share of the target that was removed. Usually DC50 stands for the midpoint of the concentration-degradation curve.
